Results published in patent publication US10662229B2, “Spider venom peptides and methods of use for modulating sodium channels” (priority 2016, dated 2020).
Where a SMILES comes first, the peptide text is derived from it. Bridges are numbered along the chain shown (N, C = ends).

Key:
Assay type in all cases: cell-based
hNav1.1 = target: T1, hNav1.1 (Homo sapiens, UniProt P35498); assay: FLIPR membrane potential assay, hNav1.1; conditions: for Selectivity for Nav1.7, Nav subtype 1.1: membrane potential assay
T1 construct: host or cells: HEK293
Description: (§1) HEK293 cells stably expressing hNav1.1, hNav1.2, hNav1.3, hNav1.4, hNav1.5, hNav1.6, hNav1.7 and […] (SB Drug Discovery, Glasgow, UK) were cultured in minimum essential media (MEM) containing 10% v/v FBS supplemented with L-glutamine (2 mM) and selection antibiotics G-418 (0.5 mg/mL), blasticidin (2-4 μg/mL) and zeocin (0.5 mg/mL) as recommended by the manufacturer. CHO cells stably expressing hNav1.8 in a tetracycline-inducible system (Chantest, OH, USA) were cultured in Ham's F-12 containing 10% v/v FBS and selection antibiotics as recommended by the manufacturer. To induce hNav1.8 expression, cells were cultured in the presence of tetracycline (1 μg/mL) for 24 h at 27° C. Cells were grown in a humidified 5% CO2 incubator at 37° C., grown to 70-80% confluence, and passaged every 3-4 days using TrypLE Express (Invitrogen).
(§2) Cells were plated 48 h before the assay on 384-well black walled imaging plates at a density of 10,000 to 15,000 cells per well and were loaded with red membrane potential dye for 30 min at 37° C. (Molecular Devices, CA, USA). One vial of bulk red membrane potential dye was reconstituted to a 10× stock solution with PSS and stored at −20° C. and diluted to 1× solution with PSS on the day of the assay. […] Changes in membrane potential were assessed using the FLIPR^TETRA (excitation 515 to 545 nm, emission 565 to 625 nm) every second for 300 s after adding agonists.

hNav1.2 = target: T2, hNav1.2 (Homo sapiens, UniProt Q99250); assay: FLIPR membrane potential assay, hNav1.2; conditions: for Selectivity for Nav1.7, Nav subtype 1.2: membrane potential assay
T2 construct: host or cells: HEK293
Description: as §1, §2

hNav1.3 = target: T3, hNav1.3 (Homo sapiens, UniProt Q9NY46); assay: FLIPR membrane potential assay, hNav1.3; conditions: for Selectivity for Nav1.7, Nav subtype 1.3: membrane potential assay
T3 construct: host or cells: HEK293
Description: as §1, §2

hNav1.4 = target: T4, hNav1.4 (Homo sapiens, UniProt P35499); assay: FLIPR membrane potential assay, hNav1.4; conditions: for Selectivity for Nav1.7, Nav subtype 1.4: membrane potential assay
T4 construct: host or cells: HEK293
Description: as §1, §2

hNav1.5 = target: T5, hNav1.5 (Homo sapiens, UniProt Q14524); assay: FLIPR membrane potential assay, hNav1.5; conditions: for Selectivity for Nav1.7, Nav subtype 1.5: membrane potential assay
T5 construct: host or cells: HEK293
Description: as §1, §2

hNav1.6 = target: T6, hNav1.6 (Homo sapiens, UniProt Q9UQD0); assay: FLIPR membrane potential assay, hNav1.6; conditions: for Selectivity for Nav1.7, Nav subtype 1.6: membrane potential assay
T6 construct: host or cells: HEK293
Description: as §1, §2

hNav1.8 = target: T7, hNav1.8 (Homo sapiens, UniProt Q9Y5Y9); assay: FLIPR membrane potential assay, hNav1.8; conditions: for Selectivity for Nav1.7, Nav subtype 1.8: membrane potential assay
T7 construct: host or cells: HEK293
Description: as §1, §2

hNav1.7 = target: T8, hNav1.7 (Homo sapiens, UniProt Q15858); assay: FLIPR membrane potential assay, hNav1.7; conditions: for Selectivity for Nav1.7, Nav subtype 1.7: membrane potential assay, reference subtype
T8 construct: host or cells: HEK293
Description: as §1, §2

T3 sequence (Q9NY46 whole entry): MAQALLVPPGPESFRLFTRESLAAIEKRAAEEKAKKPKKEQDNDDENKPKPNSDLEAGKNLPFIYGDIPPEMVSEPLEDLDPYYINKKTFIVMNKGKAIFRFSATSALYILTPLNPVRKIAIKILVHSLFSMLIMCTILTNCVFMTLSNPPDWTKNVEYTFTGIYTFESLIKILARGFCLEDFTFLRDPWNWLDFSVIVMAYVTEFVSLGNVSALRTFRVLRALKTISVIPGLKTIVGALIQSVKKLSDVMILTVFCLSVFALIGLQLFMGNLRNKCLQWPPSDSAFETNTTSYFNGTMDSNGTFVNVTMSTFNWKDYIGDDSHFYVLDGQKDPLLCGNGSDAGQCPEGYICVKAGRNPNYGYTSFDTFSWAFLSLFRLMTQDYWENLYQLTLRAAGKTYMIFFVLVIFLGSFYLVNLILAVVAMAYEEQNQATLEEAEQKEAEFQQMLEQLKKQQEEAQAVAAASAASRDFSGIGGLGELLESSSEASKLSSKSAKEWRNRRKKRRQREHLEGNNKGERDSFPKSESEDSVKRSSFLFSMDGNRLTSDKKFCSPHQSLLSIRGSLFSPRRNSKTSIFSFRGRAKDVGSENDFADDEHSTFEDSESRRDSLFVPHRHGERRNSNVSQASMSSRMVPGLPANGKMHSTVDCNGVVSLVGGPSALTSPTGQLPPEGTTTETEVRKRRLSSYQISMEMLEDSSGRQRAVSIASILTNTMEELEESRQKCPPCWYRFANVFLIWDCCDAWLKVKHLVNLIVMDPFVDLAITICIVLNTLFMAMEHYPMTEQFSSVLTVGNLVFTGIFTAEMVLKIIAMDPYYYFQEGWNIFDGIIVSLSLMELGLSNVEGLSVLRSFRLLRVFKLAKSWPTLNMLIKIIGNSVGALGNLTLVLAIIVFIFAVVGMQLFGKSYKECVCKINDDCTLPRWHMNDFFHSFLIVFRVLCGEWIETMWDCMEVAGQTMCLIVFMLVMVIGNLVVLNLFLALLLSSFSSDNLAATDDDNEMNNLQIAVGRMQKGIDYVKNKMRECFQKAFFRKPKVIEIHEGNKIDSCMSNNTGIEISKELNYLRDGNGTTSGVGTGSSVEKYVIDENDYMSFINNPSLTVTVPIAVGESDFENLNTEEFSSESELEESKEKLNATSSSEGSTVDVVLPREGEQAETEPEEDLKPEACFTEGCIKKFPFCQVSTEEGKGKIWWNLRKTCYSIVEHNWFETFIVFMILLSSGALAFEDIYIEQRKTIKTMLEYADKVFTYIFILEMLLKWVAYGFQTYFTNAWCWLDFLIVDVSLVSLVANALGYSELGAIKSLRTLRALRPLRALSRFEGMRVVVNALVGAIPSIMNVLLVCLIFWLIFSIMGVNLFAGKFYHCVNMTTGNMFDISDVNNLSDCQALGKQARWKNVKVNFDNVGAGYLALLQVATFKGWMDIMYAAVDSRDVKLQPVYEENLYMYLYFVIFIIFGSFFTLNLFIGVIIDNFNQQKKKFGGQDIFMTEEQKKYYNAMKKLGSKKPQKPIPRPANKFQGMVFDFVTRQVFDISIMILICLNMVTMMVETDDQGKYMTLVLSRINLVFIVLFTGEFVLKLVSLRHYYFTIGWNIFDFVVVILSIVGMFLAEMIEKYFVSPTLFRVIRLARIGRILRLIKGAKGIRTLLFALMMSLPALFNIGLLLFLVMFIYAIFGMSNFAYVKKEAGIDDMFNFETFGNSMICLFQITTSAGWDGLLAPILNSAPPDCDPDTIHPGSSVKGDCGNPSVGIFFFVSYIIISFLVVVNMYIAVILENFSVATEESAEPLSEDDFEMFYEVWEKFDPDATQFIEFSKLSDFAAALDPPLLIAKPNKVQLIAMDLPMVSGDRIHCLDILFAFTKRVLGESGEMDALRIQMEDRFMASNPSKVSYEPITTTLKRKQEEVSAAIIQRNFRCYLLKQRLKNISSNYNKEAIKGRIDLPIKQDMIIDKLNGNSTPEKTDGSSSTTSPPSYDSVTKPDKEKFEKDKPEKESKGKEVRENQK
T2 sequence (Q99250 whole entry): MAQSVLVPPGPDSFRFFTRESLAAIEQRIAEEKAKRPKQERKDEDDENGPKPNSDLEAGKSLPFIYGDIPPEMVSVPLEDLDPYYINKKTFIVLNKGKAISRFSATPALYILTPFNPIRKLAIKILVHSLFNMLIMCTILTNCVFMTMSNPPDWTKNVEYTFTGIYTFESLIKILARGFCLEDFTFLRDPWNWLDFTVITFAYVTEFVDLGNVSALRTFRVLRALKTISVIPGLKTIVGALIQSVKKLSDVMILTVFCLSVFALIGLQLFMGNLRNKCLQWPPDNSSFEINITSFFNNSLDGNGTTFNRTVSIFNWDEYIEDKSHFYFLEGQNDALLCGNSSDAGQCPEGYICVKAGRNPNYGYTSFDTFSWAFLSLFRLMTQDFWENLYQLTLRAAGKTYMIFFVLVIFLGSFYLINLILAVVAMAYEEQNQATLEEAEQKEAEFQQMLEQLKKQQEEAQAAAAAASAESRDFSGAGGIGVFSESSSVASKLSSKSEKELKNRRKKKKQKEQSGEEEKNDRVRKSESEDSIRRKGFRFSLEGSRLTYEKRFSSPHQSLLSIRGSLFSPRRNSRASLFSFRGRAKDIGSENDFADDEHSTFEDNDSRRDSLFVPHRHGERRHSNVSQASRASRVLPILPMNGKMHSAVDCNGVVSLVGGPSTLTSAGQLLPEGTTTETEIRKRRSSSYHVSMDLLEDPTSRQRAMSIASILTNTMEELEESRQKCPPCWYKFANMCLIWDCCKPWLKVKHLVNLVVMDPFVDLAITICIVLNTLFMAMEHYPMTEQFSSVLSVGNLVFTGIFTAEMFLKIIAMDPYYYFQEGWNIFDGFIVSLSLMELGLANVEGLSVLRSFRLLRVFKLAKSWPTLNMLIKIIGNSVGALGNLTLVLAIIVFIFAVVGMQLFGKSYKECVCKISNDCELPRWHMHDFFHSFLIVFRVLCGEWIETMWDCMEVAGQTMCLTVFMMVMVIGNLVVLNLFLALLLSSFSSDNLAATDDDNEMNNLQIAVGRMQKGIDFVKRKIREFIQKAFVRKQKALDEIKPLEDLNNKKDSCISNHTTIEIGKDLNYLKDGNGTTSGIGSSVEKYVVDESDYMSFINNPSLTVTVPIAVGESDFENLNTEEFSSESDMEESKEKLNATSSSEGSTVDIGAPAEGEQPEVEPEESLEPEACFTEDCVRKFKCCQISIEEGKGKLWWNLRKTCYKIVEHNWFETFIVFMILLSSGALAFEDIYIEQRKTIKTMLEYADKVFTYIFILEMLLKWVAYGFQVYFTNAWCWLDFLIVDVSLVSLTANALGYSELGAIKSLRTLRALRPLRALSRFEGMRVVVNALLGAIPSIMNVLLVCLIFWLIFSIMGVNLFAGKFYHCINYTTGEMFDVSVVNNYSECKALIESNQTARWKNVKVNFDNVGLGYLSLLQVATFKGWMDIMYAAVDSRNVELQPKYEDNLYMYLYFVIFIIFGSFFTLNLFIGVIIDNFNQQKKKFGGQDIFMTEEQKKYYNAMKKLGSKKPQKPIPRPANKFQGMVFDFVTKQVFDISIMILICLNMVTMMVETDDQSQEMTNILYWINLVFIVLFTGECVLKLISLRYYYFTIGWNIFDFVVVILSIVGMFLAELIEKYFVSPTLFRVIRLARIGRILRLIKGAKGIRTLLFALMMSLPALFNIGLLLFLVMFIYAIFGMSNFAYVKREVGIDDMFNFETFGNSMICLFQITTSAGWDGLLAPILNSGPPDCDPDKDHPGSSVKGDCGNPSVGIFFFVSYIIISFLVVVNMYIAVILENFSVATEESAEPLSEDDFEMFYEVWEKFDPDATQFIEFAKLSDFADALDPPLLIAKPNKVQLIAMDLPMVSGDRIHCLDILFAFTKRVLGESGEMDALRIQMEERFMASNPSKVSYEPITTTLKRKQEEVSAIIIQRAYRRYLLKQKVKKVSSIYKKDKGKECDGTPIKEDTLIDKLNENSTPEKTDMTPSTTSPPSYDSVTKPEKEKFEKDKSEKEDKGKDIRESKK

CSCC[C@@H]1NC(=O)[C@H](Cc2ccc(O)cc2)NC(=O)[C@H](CCCNC(=N)N)NC(=O)[C@@H](NC(=O)[C@@H](N)CC(=O)O)CSSC[C@@H]2NC(=O)[C@@H]3CSSC[C@@H](C(=O)N[C@@H](C)C(=O)N[C@@H](Cc4c[nH]c5ccccc45)C(=O)N[C@@H](CC(=O)O)C(=O)N[C@@H](Cc4ccccc4)C(=O)N[C@H](C(=O)N[C@@H](Cc4ccccc4)C(=O)N[C@H](C(N)=O)[C@@H](C)O)[C@@H](C)O)NC(=O)[C@H](Cc4ccc(O)cc4)NC(=O)[C@H](CCCCN)NC(=O)[C@H](CCSC)NC(=O)[C@H](CCCCN)NC(=O)[C@H](CCCNC(=N)N)NC(=O)[C@H](CCCCN)NC(=O)[C@H](CSSC[C@H](NC(=O)[C@H](CC(=O)O)NC(=O)CNC(=O)[C@H](Cc4ccccc4)NC1=O)C(=O)N[C@@H](CCC(=O)O)C(=O)N[C@@H](CCCCN)C(=O)N[C@@H](CC(=O)O)C(=O)N[C@@H](CCC(=O)O)C(=O)N[C@@H](CC(=O)O)C(=O)N3)NC(=O)CNC(=O)[C@H](CC(C)C)NC(=O)[C@H](Cc1c[nH]cn1)NC(=O)[C@H](CCCCN)NC2=O [Pnc1a-CONH2]
IC50 (hNav1.1): 8 µM | IC50 (hNav1.2): 3 µM | IC50 (hNav1.3): 7 µM | IC50 (hNav1.4): 16 µM | IC50 (hNav1.5): > 30 µM | IC50 (hNav1.6): 20 µM | IC50 (hNav1.8): > 30 µM

CSCC[C@@H]1NC(=O)[C@H](Cc2ccc(O)cc2)NC(=O)[C@H](CCCNC(=N)N)NC(=O)[C@@H](NC(=O)[C@H](CC(=O)O)NC(C)=O)CSSC[C@@H]2NC(=O)[C@@H]3CSSC[C@@H](C(=O)N[C@@H](C)C(=O)N[C@@H](Cc4c[nH]c5ccccc45)C(=O)N[C@@H](CC(=O)O)C(=O)N[C@@H](Cc4ccccc4)C(=O)N[C@H](C(=O)N[C@@H](Cc4ccccc4)C(=O)N[C@H](C(=O)O)[C@@H](C)O)[C@@H](C)O)NC(=O)[C@H](Cc4ccc(O)cc4)NC(=O)[C@H](CCCCN)NC(=O)[C@H](CCSC)NC(=O)[C@H](CCCCN)NC(=O)[C@H](CCCNC(=N)N)NC(=O)[C@H](CCCCN)NC(=O)[C@H](CSSC[C@H](NC(=O)[C@H](CC(=O)O)NC(=O)CNC(=O)[C@H](Cc4ccccc4)NC1=O)C(=O)N[C@@H](CCC(=O)O)C(=O)N[C@@H](CCCCN)C(=O)N[C@@H](CC(=O)O)C(=O)N[C@@H](CCC(=O)O)C(=O)N[C@@H](CC(=O)O)C(=O)N3)NC(=O)CNC(=O)[C@H](CC(C)C)NC(=O)[C@H](Cc1c[nH]cn1)NC(=O)[C@H](CCCCN)NC2=O [Ac-Pnc1a]
IC50 (hNav1.1): 23 µM | IC50 (hNav1.2): 5 µM | IC50 (hNav1.3): 8 µM | IC50 (hNav1.4): 14 µM | IC50 (hNav1.5): > 30 µM | IC50 (hNav1.6): 16 µM | IC50 (hNav1.8): > 30 µM

CSCC[C@@H]1NC(=O)[C@H](Cc2ccc(O)cc2)NC(=O)[C@H](CCCNC(=N)N)NC(=O)[C@@H](NC(=O)[C@@H](N)CC(=O)O)CSSC[C@@H]2NC(=O)[C@@H]3CSSC[C@@H](C(=O)N[C@@H](C)C(=O)N[C@@H](Cc4c[nH]c5ccccc45)C(=O)N[C@@H](CC(=O)O)C(=O)N[C@@H](Cc4ccccc4)C(=O)N[C@H](C(=O)N[C@@H](Cc4ccccc4)C(=O)N[C@H](C(=O)O)[C@@H](C)O)[C@@H](C)O)NC(=O)[C@H](Cc4ccc(O)cc4)NC(=O)[C@H](CCCCN)NC(=O)[C@H](CCSC)NC(=O)[C@H](CCCCN)NC(=O)[C@H](CCCNC(=N)N)NC(=O)[C@H](CCCCN)NC(=O)[C@H](CSSC[C@H](NC(=O)CNC(=O)CNC(=O)[C@H](Cc4ccccc4)NC1=O)C(=O)N[C@@H](CCC(=O)O)C(=O)N[C@@H](CCCCN)C(=O)N[C@@H](CC(=O)O)C(=O)N[C@@H](CCC(=O)O)C(=O)N[C@@H](CC(=O)O)C(=O)N3)NC(=O)CNC(=O)[C@H](CC(C)C)NC(=O)[C@H](Cc1c[nH]cn1)NC(=O)[C@H](CCCCN)NC2=O [[D8G]Pnc1a] (H-DCRYMFGGCEKDEDCCKHLGCKRKMKYCAWDFTFT-OH; disulfide 2-16, 9-21, 15-28)
IC50 (hNav1.1): 2 µM | Selectivity for Nav1.7, Nav subtype 1.1 (hNav1.1): 35 | IC50 (hNav1.2): 0.301 µM | Selectivity for Nav1.7, Nav subtype 1.2 (hNav1.2): 6 | IC50 (hNav1.3): 0.658 µM | Selectivity for Nav1.7, Nav subtype 1.3 (hNav1.3): 13 | IC50 (hNav1.4): 2 µM | Selectivity for Nav1.7, Nav subtype 1.4 (hNav1.4): 48 | IC50 (hNav1.5): > 30 µM | Selectivity for Nav1.7, Nav subtype 1.5 (hNav1.5): >616 | IC50 (hNav1.6): 2 µM | Selectivity for Nav1.7, Nav subtype 1.6 (hNav1.6): 46 | IC50 (hNav1.7): 0.049 µM | Selectivity for Nav1.7, Nav subtype 1.7 (hNav1.7): 1 | IC50 (hNav1.8): > 30 µM | Selectivity for Nav1.7, Nav subtype 1.8 (hNav1.8): >616

CSCC[C@@H]1NC(=O)[C@H](Cc2ccc(O)cc2)NC(=O)[C@H](CCCNC(=N)N)NC(=O)[C@@H](NC(=O)[C@@H](N)CC(=O)O)CSSC[C@@H]2NC(=O)[C@@H]3CSSC[C@@H](C(=O)N[C@@H](C)C(=O)N[C@@H](Cc4c[nH]c5ccccc45)C(=O)N[C@@H](CC(=O)O)C(=O)N[C@@H](Cc4ccccc4)C(=O)N[C@H](C(=O)N[C@@H](Cc4ccccc4)C(=O)N[C@H](C(=O)O)[C@@H](C)O)[C@@H](C)O)NC(=O)[C@H](Cc4ccc(O)cc4)NC(=O)[C@H](CCCCN)NC(=O)[C@H](CCSC)NC(=O)[C@H](CCCNC(=N)N)NC(=O)[C@H](CCCNC(=N)N)NC(=O)[C@H](CCCCN)NC(=O)[C@H](CSSC[C@H](NC(=O)[C@H](CC(=O)O)NC(=O)CNC(=O)[C@H](Cc4ccccc4)NC1=O)C(=O)N[C@@H](CCC(=O)O)C(=O)N[C@@H](CCCCN)C(=O)N[C@@H](CC(=O)O)C(=O)N[C@@H](CCC(=O)O)C(=O)N[C@@H](CC(=O)O)C(=O)N3)NC(=O)CNC(=O)[C@H](CC(C)C)NC(=O)[C@H](Cc1c[nH]cn1)NC(=O)[C@H](CCCCN)NC2=O [[K24R]Pnc1a] (H-DCRYMFGDCEKDEDCCKHLGCKRRMKYCAWDFTFT-OH; disulfide 2-16, 9-21, 15-28)
IC50 (hNav1.1): 0.856 µM | Selectivity for Nav1.7, Nav subtype 1.1 (hNav1.1): 27 | IC50 (hNav1.2): 0.414 µM | Selectivity for Nav1.7, Nav subtype 1.2 (hNav1.2): 13 | IC50 (hNav1.3): 8 µM | Selectivity for Nav1.7, Nav subtype 1.3 (hNav1.3): 260 | IC50 (hNav1.4): 3 µM | Selectivity for Nav1.7, Nav subtype 1.4 (hNav1.4): 102 | IC50 (hNav1.5): > 30 µM | Selectivity for Nav1.7, Nav subtype 1.5 (hNav1.5): >900 | IC50 (hNav1.6): > 30 µM | Selectivity for Nav1.7, Nav subtype 1.6 (hNav1.6): >900 | IC50 (hNav1.7): 0.031 µM | Selectivity for Nav1.7, Nav subtype 1.7 (hNav1.7): 1 | IC50 (hNav1.8): > 30 µM | Selectivity for Nav1.7, Nav subtype 1.8 (hNav1.8): >900

CSCC[C@@H]1NC(=O)[C@H](Cc2ccc(O)cc2)NC(=O)[C@H](CCCNC(=N)N)NC(=O)[C@@H](NC(=O)[C@@H](N)CC(=O)O)CSSC[C@@H]2NC(=O)[C@@H]3CSSC[C@@H](C(=O)N[C@@H](C)C(=O)N[C@@H](Cc4c[nH]c5ccccc45)C(=O)N[C@@H](CC(=O)O)C(=O)N[C@@H](Cc4ccccc4)C(=O)N[C@H](C(=O)N[C@@H](Cc4ccccc4)C(=O)N[C@H](C(=O)O)[C@@H](C)O)[C@@H](C)O)NC(=O)[C@H](Cc4ccc(O)cc4)NC(=O)[C@H](CCCCN)NC(=O)[C@H](CCSC)NC(=O)[C@H](CCCCN)NC(=O)[C@H](CCCNC(=N)N)NC(=O)[C@H](CCCCN)NC(=O)[C@H](CSSC[C@H](NC(=O)[C@H](CC(=O)O)NC(=O)CNC(=O)[C@H](Cc4ccccc4)NC1=O)C(=O)N[C@@H](CCC(=O)O)C(=O)N[C@@H](CCCCN)C(=O)N[C@@H](CC(=O)O)C(=O)N[C@@H](CCCCN)C(=O)N[C@@H](CC(=O)O)C(=O)N3)NC(=O)CNC(=O)[C@H](CC(C)C)NC(=O)[C@H](Cc1c[nH]cn1)NC(=O)[C@H](CCCCN)NC2=O [[E13K]Pnc1a] (H-DCRYMFGDCEKDKDCCKHLGCKRKMKYCAWDFTFT-OH; disulfide 2-16, 9-21, 15-28)
IC50 (hNav1.2): 0.378 µM | Selectivity for Nav1.7, Nav subtype 1.2 (hNav1.2): 4 | IC50 (hNav1.3): 6 µM | Selectivity for Nav1.7, Nav subtype 1.3 (hNav1.3): 66 | IC50 (hNav1.4): 2 µM | Selectivity for Nav1.7, Nav subtype 1.4 (hNav1.4): 27 | IC50 (hNav1.5): > 30 µM | Selectivity for Nav1.7, Nav subtype 1.5 (hNav1.5): >300 | IC50 (hNav1.6): 1 µM | Selectivity for Nav1.7, Nav subtype 1.6 (hNav1.6): 14 | Selectivity for Nav1.7, Nav subtype 1.7 (hNav1.7): 1 | IC50 (hNav1.8): > 30 µM | Selectivity for Nav1.7, Nav subtype 1.8 (hNav1.8): >300
